Reference: US6353120B2, “Process for the preparation of a paclitaxel C-4 methyl carbonate analog” (Bristol-Myers Squibb Company, priority 1999, dated 2002)

Columns and labels:
[1] = tested on: M109 murine lung carcinoma; assay: distal site tumor model, M109 murine lung carcinoma; type: in vivo
[2] = tested on: HCT/pk human colon carcinoma xenograft (multidrug resistant tumor model); assay: distal site tumor model, HCT/pk human colon carcinoma xenograft; type: in vivo
[3] = tested on: L2987 human lung carcinoma xenograft; assay: distal site tumor model, L2987 human lung carcinoma xenograft; type: in vivo
[4] = tested on: HOC79, a clinically derived Taxol unresponsive ovarian carcinoma xenograft; assay: distal site tumor model, HOC79 ovarian carcinoma xenograft; type: in vivo
[5] = tested on: tubulin; assay: tubulin polymerization assay; type: biochemical

## C-4 methylcarbonate analog of paclitaxel [Compound I]
[1]
  antitumor activity compared with paclitaxel: superior to paclitaxel
[2]
  antitumor activity compared with paclitaxel: superior to paclitaxel
[3]
  antitumor activity compared with paclitaxel: superior to paclitaxel
[4]
  antitumor activity compared with paclitaxel: superior to paclitaxel
[5]
  potency in tubulin polymerization relative to paclitaxel: about twice as potent as paclitaxel
